Measured values as given in ChEMBL document CHEMBL1201862, “PubChem BioAssay data set” (2004).
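Assay format: 96-well plates, 48-hour exposure. The concentration for 50% growth inhibition is given as GI50.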 Active and inactive are the calls of the source. Rule as the data show it: active = GI50 up to about 1.1 µM and inactive = higher.

Experiments:
Test in all cases: NCI-60 cell line screen, 48 h
[1] = tested on: SNB-19
[2] = tested on: K562
[3] = tested on: TK-10
[4] = tested on: HCT-116
[5] = tested on: 786-0
[6] = tested on: NCI-H23
[7] = tested on: HOP-62
[8] = tested on: SK-MEL-28
[9] = tested on: XF498
[10] = tested on: HT-29
[11] = tested on: ACHN
[12] = tested on: SF-295
[13] = tested on: HCC 2998
[14] = tested on: HL-60
[15] = tested on: CAKI-1
[16] = tested on: M14
[17] = tested on: OVCAR-3
[18] = tested on: A498
[19] = tested on: MDA-N
[20] = tested on: IGROV-1

SMILES | GI50 [1] | GI50 [2] | GI50 [3] | GI50 [4] | GI50 [5] | GI50 [6] | GI50 [7] | GI50 [8] | GI50 [9] | GI50 [10] | GI50 [11] | GI50 [12] | GI50 [13] | GI50 [14] | GI50 [15] | GI50 [16] | GI50 [17] | GI50 [18] | GI50 [19] | GI50 [20]
COC(=O)c1ccc(OCc2ccc3nc(OC)c(OC)nc3c2)cc1 | > 100 µM (inactive) | > 100 µM (inactive) | > 100 µM (inactive) | 89.9 µM (inactive) | > 100 µM (inactive) | > 100 µM (inactive) | 68.4 µM (inactive) | > 100 µM (inactive) | > 100 µM (inactive) | > 100 µM (inactive) | > 100 µM (inactive) | 82.6 µM (inactive) | > 100 µM (inactive) | > 100 µM (inactive) | > 100 µM (inactive) | > 100 µM (inactive) | > 100 µM (inactive) |  |  | 
O=C(O[C@H](/C=C/c1ccccc1)P1(=O)N(Cc2ccccc2)[C@@H]2CCCC[C@H]2N1Cc1ccccc1)c1ccccc1 | 6.5 µM (inactive) | 3.24 µM (inactive) | 38.9 µM (inactive) | 3.01 µM (inactive) | 3.83 µM (inactive) | 2.47 µM (inactive) | 5.38 µM (inactive) | 3.05 µM (inactive) |  | 3.45 µM (inactive) | 3.94 µM (inactive) | 3.79 µM (inactive) | 5.9 µM (inactive) | 3.66 µM (inactive) | 2.16 µM (inactive) | 4.11 µM (inactive) | 3.68 µM (inactive) | 5.57 µM (inactive) | 3.68 µM (inactive) | 3.37 µM (inactive)
CCC(C)C1NC(=O)CNC(=O)C2Cc3c([nH]c4cc(O)ccc34)[S+]([O-])CC(NC(=O)CNC1=O)C(=O)NC(CC(=O)O)C(=O)N1CC(O)CC1C(=O)NC(C(C)C(O)CO)C(=O)N2 (stereo unspecified) | 1.3 µM (inactive) | 3.93 µM (inactive) |  | 6.37 µM (inactive) |  | 1.83 µM (inactive) | 0.662 µM (active) | 2.54 µM (inactive) | 1.16 µM (inactive) | 28.8 µM (inactive) |  | 1.51 µM (inactive) | 0.653 µM (active) | 28.6 µM (inactive) |  |  | 2.47 µM (inactive) | 2.83 µM (inactive) |  | 4.39 µM (inactive)
COc1ccc(CC(N)=O)cc1OC | > 1250 µM (inactive) | > 1250 µM (inactive) |  | > 1250 µM (inactive) |  | > 1250 µM (inactive) | > 818 µM (inactive) | > 1250 µM (inactive) | > 879 µM (inactive) | > 1250 µM (inactive) |  | > 1250 µM (inactive) | > 1250 µM (inactive) | > 1150 µM (inactive) | 564 µM (inactive) |  | > 1250 µM (inactive) | > 1250 µM (inactive) |  | > 1250 µM (inactive)
O=c1ccn(C/C=C/c2ccccc2)c(=S)n1C/C=C/c1ccccc1 | > 100 µM (inactive) | 15.8 µM (inactive) | > 100 µM (inactive) | 44.6 µM (inactive) | > 100 µM (inactive) | 33.3 µM (inactive) | > 100 µM (inactive) | > 100 µM (inactive) |  | > 100 µM (inactive) | > 100 µM (inactive) | > 100 µM (inactive) | 50.7 µM (inactive) | 13.8 µM (inactive) | > 100 µM (inactive) | 73.6 µM (inactive) | > 100 µM (inactive) | > 100 µM (inactive) | 47.4 µM (inactive) | > 100 µM (inactive)
CN(CCO)/N=N/c1n[nH]cc1C(N)=O | > 100 µM (inactive) | > 100 µM (inactive) |  | > 100 µM (inactive) |  | > 100 µM (inactive) |  | > 100 µM (inactive) | > 100 µM (inactive) | > 100 µM (inactive) |  | > 100 µM (inactive) | > 100 µM (inactive) | > 100 µM (inactive) | > 100 µM (inactive) |  | > 100 µM (inactive) | > 100 µM (inactive) |  | > 100 µM (inactive)
CC1(c2cccc(C3CCC4(C=CC3=O)OCCO4)c2)OCCO1 (stereo unspecified) | 15.9 µM (inactive) | 3.08 µM (inactive) | 8.2 µM (inactive) | 4.2 µM (inactive) | 4.62 µM (inactive) | 11.5 µM (inactive) | 31 µM (inactive) | 16 µM (inactive) |  | 11.8 µM (inactive) | 4.91 µM (inactive) | 34.3 µM (inactive) | 18.6 µM (inactive) | 1.62 µM (inactive) | 8.61 µM (inactive) | 6.97 µM (inactive) | 5.2 µM (inactive) | 16.9 µM (inactive) | 10.3 µM (inactive) | 18.4 µM (inactive)
O=[N+]([O-])c1cccc2c1[nH]c1c(-c3ccccc3)nccc12 | 3.19 µM (inactive) | 1.99 µM (inactive) |  | 2.39 µM (inactive) |  | 2.07 µM (inactive) | 1.87 µM (inactive) | 3.84 µM (inactive) | 2.65 µM (inactive) | 1.58 µM (inactive) |  | 3.08 µM (inactive) | 3.31 µM (inactive) | 1.63 µM (inactive) |  |  | 1.36 µM (inactive) | 3.72 µM (inactive) |  | 1.8 µM (inactive)
